Test results reported in patent US20230330089A1, “COVID PREVENTION AND TREATMENT USING AN INTEGRIN INHIBITOR” (priority 2022, published 2023).

Assays:
[1] = test system: VsVg positive control lentivirus; type: cell-based; conditions: HSAE cells pre-treated with 20 nM to 1 μM for 2 hours; 24 hour infection
[2] = test system: TGF-β signaling; conditions: breast cancer cells; cited from earlier work
[3] = Phase I, solid tumors; cited from earlier work
[4] = test system: ACE2; conditions: cited from earlier work
[5] = test system: SARS-CoV-2 pseudovirus; conditions: cited from earlier work

## COc1ccc(S(=O)(=O)N[C@@H](CNc2nc(C)nc(N3CCC(c4ccc5c(n4)NCCC5)CC3)c2C)C(=O)O)cc1 [GLPG-0187]
[1]
  effect on VsVg positive control infection: no effect of the inhibitor was observed
[2]
  effect on TGF-β signaling: decreased TGF-β signaling
[3]
  toxicity profile in patients: favorable toxicity profile

## CNS(=O)(=O)Nc1nccc(Cc2c(C)c3ccc(Oc4ncccn4)cc3oc2=O)c1F [VS-6766]
[4]
  cellular expression of ACE2: reduce cellular expression of ACE2
[5]
  pseudovirus infection of multiple human cell types: inhibit pseudovirus infection
